Article PMC6131760, “4-Phenyl-1,3-thiazole-2-amines as scaffolds for new antileishmanial agents” (The Journal of Venomous Animals and Toxins Including …, 2018)
Like-named read-outs stand apart in the source and are kept apart here.

Assays:
[1] = test system: promastigotes of Leishmania amazonensis (MHOM/BR/1973/M2269); test: Antileishmanial assay against promastigotes (PrestoBlue viability); type: cell-based; conditions: L. amazonensis promastigotes
Method: All compounds were assayed against promastigotes of Leishmania amazonensis (MHOM/BR/1973/M2269). Promastigotes were grown in 199 media (Sigma, USA) supplemented with 10% (v/v) of fetal bovine serum, 1% penicillin (10,000 UI/mL)/streptomycin (10.0 mg/mL) (Sigma, USA). The parasites were collected at log phase, they were counted at the Neubauer chamber, their concentration was adjusted to 1 × 10^6 cell/mL, and their cells were seeded at a 96-wells plate. The 4-phenyl-2-aminothiazoles were added to the culture, considering concentrations ranging from 3.2 to 142 μM. Compounds were diluted in Dimethyl sulfoxide (DMSO) (25 mg/mL) and diluted in 199 media to generate a 1% DMSO starting solution of each test compound. Positive control with no compounds and DMSO control were considered at the assay. All plates were incubated at 25 °C for 48 h, and PrestoBlue® vital dye was added to the wells.
Viability was accessed with PrestoBlue® (Invitrogen, ThermoFisher) according to the manufacturer’s instructions. The reagent was added in each well (10 μL) and plates incubated for 2 h. Then, plates were read on a microplate reader (PowerWave HT, Biotek) with excitation/emission 560/590 nm (nm). The relative fluorescence units were used to generate the quantitative results. All compounds were analyzed as duplicates, and the parameters to calculate IC50 were obtained by GraphPad Prism, version 5.0. IC50 values were determined by the Hill equation rearranged. LogIC50=logEC50−logTop−Bottom/Y−Bottom−1/HillSlope

VERO cells = test: Cytotoxicity assay in Vero cells (MTT); type: cell-based, African green monkeys
Method: (§1) Cytotoxicity was also evaluated using Vero cells, a monkey kidney cell line obtained from the American Type Culture Collection (ATCC CCL-81; Manassas, VA). The cytotoxicity was determined by the 3-(4,5dimethylthiazol- 2-yl)-2,5-diphenyltetrazolium bromide (MTT) method according to a previously described procedure.
(§2) In all cases, the CC50 was calculated as described as in the Antileishmanial assay Section.
(§3) Selectivity indexes (SI) were calculated by dividing CC50 against each mammalian cell line by the IC50 against L. amazonensis (CC50/IC50).

L929 cells = test: Cytotoxicity assay in L929 cells (PrestoBlue); type: cell-based
Method: (§4) The cytotoxicity was measured in L929 and THP1 cell lines using PrestoBlue®Cell Viability Reagent (Thermo Scientific, Invitrogen) as described by Lall et al. with modifications. First, cells were maintained in RPMI 1640 (Gibco) supplemented with 10% fetal bovine serum (FBS) and 1% antibiotics (100 U/mL penicillin, 100 μg/mL streptomycin). Cell cultures were grown and maintained at 37 °C in a humidified incubator with 5% CO2. Then, L929 cells were seeded in 96-wells flat microtiter plate at a concentration of 1 × 10^5cells/mL (100 μL/well). To THP-1 cells, cultures were differentiated into macrophages by adding 50 ng/mL 12-myristate 13-acetate phorbol (PMA) (Calbiochem, San Diego, USA) in RPMI-free FBS. After 24 h of culturing, the adhered cells were washed with PBS and RPMI with 10% FBS were added. […] The plates were incubated for 48 h and, thereafter, 20 μL/well PrestoBlue® was added. The plates were incubated for further 2 h and the fluorescence was read at bottom using 540–570 nm excitation and 580–610 nm emission. The average of the fluorescence values of the control wells (medium plus PrestoBlue®) was subtracted from the fluorescence value of the positive controls (cells, medium, and PrestoBlue®) and from each experimental well (cells, medium, compounds and PrestoBlue®). In all cases, the CC50 was calculated as described as in the Antileishmanial assay Section. Selectivity indexes (SI) were calculated by dividing CC50 against each mammalian cell line by the IC50 against L. amazonensis (CC50/IC50).

THP1 cells = test: Cytotoxicity assay in THP-1 cells differentiated into macrophages (PrestoBlue); type: cell-based, human
Method: as §4

[2] = Cytotoxicity assay in Vero cells (MTT); type: cell-based, African green monkeys; conditions: African green monkey, Vero cells (monkey kidney cell line, ATCC CCL-81); Vero cells, MTT
Method: as §1, §2, §3

[3] = Cytotoxicity assay in L929 cells (PrestoBlue); type: cell-based; conditions: mouse, L929 fibroblast cells; L929 fibroblasts, 48 h, PrestoBlue
Method: as §4

[4] = Cytotoxicity assay in THP-1 cells differentiated into macrophages (PrestoBlue); type: cell-based, human; conditions: human, THP-1 cells differentiated into macrophages with PMA; PMA-differentiated THP-1, 48 h, PrestoBlue; read-out: CC50 THP1 cells
Method: as §4

[5] = Leishmania amazonensis, 48 h, 48 h at 25 °C, PrestoBlue, 3.2 to 142 μM tested, read-out: IC50
[6] = Vero cells, MTT, read-out: CC50 VERO cells
[7] = L929 fibroblasts, 48 h, PrestoBlue, read-out: CC50 L929 cells
[8] = PMA-differentiated THP-1, 48 h, PrestoBlue, read-out: CC50 THP1 cells
[9] = 48 h at 25 °C, PrestoBlue, 3.2 to 142 μM tested, read-out: IC50

Compound | IC50 [1, 5] | CC50 (VERO cells; [6]) | pIC50 ([1]; pIC50 = −log10 (IC50)) | CC50 (L929 cells; [7]) | CC50 (THP1 cells; [8]) | IC50 [1, 9] | also measured
C[C@@H]1[C@H](O)[C@@H](C)/C=C/C=C/C=C/C=C/C=C/C=C/C=C/[C@H](O[C@@H]2O[C@H](C)[C@@H](O)[C@H](N)[C@@H]2O)C[C@@H]2O[C@](O)(C[C@@H](O)C[C@@H](O)[C@H](O)CC[C@@H](O)C[C@@H](O)CC(=O)O[C@H]1C)C[C@H](O)[C@H]2C(=O)O [Amphotericin B, reference compound] | 16.2 µM | – | – | – | – | – | –
Nc1nc(-c2ccccc2)cs1 [Compound 1] | – | 710 µM | 3.02 | 198 µM | 144 µM | – | –
Cc1ccc(-c2csc(N)n2)cc1 [Compound 2] | – | 658 µM | 3.97 | 160 µM | 135 µM | 108 µM | –
CCc1ccc(-c2csc(N)n2)cc1 [Compound 3] | – | – | 4.33 | – | – | 46.6 µM | CC50 (VERO cells): 1220 µM; CC50 (L929 cells): 95.5 µM; CC50 (THP1 cells): 117 µM
Nc1nc(-c2ccc(Cl)c(Cl)c2)cs1 [Compound 4] | – | 255 µM | 4.27 | 121 µM | 84.7 µM | – | –
Nc1nc(-c2ccc(C(F)(F)F)cc2)cs1 [Compound 5] | – | 512 µM | 4.27 | 106 µM | 92.2 µM | – | –
CC(C)(C)c1ccc(-c2csc(N)n2)cc1 [Compound 6] | 21 µM | – | – | – | – | 20.8 µM | CC50 [2]: 118 µM; IC50 ([1]; Leishmania amazonensis, pIC50 = −log10 (IC50), read-out: pIC50 (converted)): 20.9 µM; CC50 at 48 h [3]: 27.1 µM; CC50 at 48 h [4]: 45.7 µM; melting point: 227 to 230 °C
Nc1nc(-c2ccc(O)cc2)cs1 [Compound 7] | – | 651 µM | inactive | – | – | – | IC50 ([1]; 48 h at 25 °C, PrestoBlue, 3.2 to 142 μM tested): inactive; CC50 L929 cells (L929 cells; L929 fibroblasts, 48 h, PrestoBlue): Inactive; CC50 THP1 cells (THP1 cells; PMA-differentiated THP-1, 48 h, PrestoBlue): inactive
Nc1nc(-c2ccc(Cl)cc2)cs1 [Compound 8] | – | 596 µM | 3.94 | 115 µM | 82.2 µM | 116 µM | –
N=C(N)c1ccc(OCCCCCOc2ccc(C(=N)N)cc2)cc1 [Pentamidine, reference compound] | 10.8 µM | – | – | – | – | – | –
